Patent publication US9955691B2, “Macrocyclic picolinamides as fungicides” (DOW AGROSCIENCES LLC, priority 2014, dated 2018)
Where two headings read alike, the source gives them in different places.

Assays:
[1] = tested on: Mycosphaerella graminicola; Anamorph: Septoria tritici; assay: Fungicidal activity: Leaf Blotch of Wheat (SEPTTR); assay type: in vivo; details: Zymoseptoria tritici, High Volume (100 ppm), wheat leaf blotch
Method in brief: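 Compounds were dissolved in acetone, diluted with nine volumes of water containing 110 ppm Triton X-100, and sprayed to run-off on first-leaf Yuma wheat seedlings inoculated with Septoria tritici spores before or after treatment. Plants were held in a dew chamber, then a 20° C. greenhouse. Percent control was derived from disease severity relative to untreated plants.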

Puccinia triticina = assay: Fungicidal activity: Wheat Brown Rust (PUCCRT); assay type: in vivo; details: High Volume (100 ppm)
Method in brief: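 Wheat seedlings (Yuma, first leaf) sprayed to run-off with compound in acetone/water with Triton X-100, inoculated with Puccinia triticina before or after treatment. Held overnight in dark dew at 22° C, then greenhouse at 24° C; percent disease control from severity versus untreated plants.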

[2] = 24 h, 1 Day Protectant, read-out: SEPTTR 1 DP disease control
[3] = 72 h, 3 Day Curative, read-out: SEPTTR 3 DC disease control
[4] = 24 h, 1 Day Protectant, read-out: PUCCRT 1 DP disease control
[5] = 72 h, 3 Day Curative, read-out: PUCCRT 3 DC disease control

| Compound | melting point [°C] | pest or weed control at 100 µg/mL [1, 2] [%] | pest or weed control at 100 µg/mL [1, 3] [%] | pest or weed control at 100 µg/mL (Puccinia triticina; [4]) [%] | pest or weed control at 100 µg/mL (Puccinia triticina; [5]) [%] |
| --- | --- | --- | --- | --- | --- |
| C=C(C)COC[C@@H]1[C@@H](Cc2ccccc2)COC[C@H](NC(=O)c2nccc(OC)c2OCOC(C)=O)C(=O)O[C@H]1C [compound 11] | 35 to 40 | – | – | – | – |
| COc1ccnc(C(=O)N[C@H]2COC[C@H](Cc3ccccc3)[C@@H](c3ccccc3)[C@H](C)OC2=O)c1OCOC(=O)C(C)C [compound 52] | 69 to 73 | – | – | – | – |
| C=C[C@@H]1[C@@H](Cc2ccccc2)COC[C@H](NC(=O)c2nccc(OC)c2O)C(=O)O[C@H]1C [compound 118] | 57 to 63 | – | – | – | – |
| CCC[C@H]1COC[C@H](NC(=O)c2nccc(OC)c2O)C(=O)O[C@@H](C)[C@@H]1CC(C)C [compound 142] | – | < 70 | < 70 | < 70 | < 70 |
| COc1ccnc(C(=O)N[C@H]2COC[C@H](Cc3ccccc3)[C@@H](Cc3ccc(F)cc3)[C@H](C)OC2=O)c1O [compound 143] | – | > 70 | < 70 | > 70 | < 70 |
| COc1ccnc(C(=O)N[C@H]2COC[C@H](CCCc3ccccc3)[C@@H](CC(C)C)[C@H](C)OC2=O)c1O [compound 144] | – | > 70 | > 70 | > 70 | > 70 |
| COc1ccnc(C(=O)N[C@H]2COC[C@H](Cc3ccc(Cl)cc3)[C@@H](CC(C)C)[C@H](C)OC2=O)c1O [compound 145] | – | > 70 | > 70 | > 70 | > 70 |
| COc1ccnc(C(=O)N[C@H]2COC[C@H](CCCc3ccccc3)[C@@H](Cc3ccc(OC(F)(F)F)cc3)[C@H](C)OC2=O)c1O [compound 146] | – | < 70 | < 70 | < 70 | < 70 |
| COc1ccnc(C(=O)N[C@H]2COC[C@H](Cc3ccc(C(F)(F)F)cc3)[C@@H](Cc3ccc(F)cc3)[C@H](C)OC2=O)c1O [compound 147] | – | > 70 | < 70 | > 70 | < 70 |
| COc1ccnc(C(=O)N[C@H]2COC[C@H](Cc3ccccc3)[C@@H](CCC(C)C)[C@H](C)OC2=O)c1O [compound 148] | – | > 70 | > 70 | < 70 | < 70 |
| CCC[C@H]1COC[C@H](NC(=O)c2nccc(OC)c2O)C(=O)O[C@@H](C)[C@@H]1c1ccccc1 [compound 152] | – | > 70 | > 70 | > 70 | > 70 |
| COc1ccnc(C(=O)N[C@H]2COC[C@H](CC3CC3)[C@@H](Cc3ccc(F)cc3)[C@H](C)OC2=O)c1O [compound 153] | – | > 70 | > 70 | > 70 | > 70 |
| COc1ccnc(C(=O)N[C@H]2COC[C@H](CC3CC3)[C@@H](c3ccccc3)[C@H](C)OC2=O)c1O [compound 154] | – | > 70 | > 70 | > 70 | > 70 |
| C[C@@H]1OC(=O)[C@@H](NC(=O)OC(C)(C)C)COC[C@H](c2ccccc2)[C@H]1c1ccccc1 [compound 204] | 63 to 71 | – | – | – | – |
| C=C[C@@H]1[C@@H](Cc2ccccc2)COC[C@H](NC(=O)OC(C)(C)C)C(=O)O[C@H]1C [compound 205] | 134 to 138 | – | – | – | – |
| C[C@@H]1OC(=O)[C@@H](NC(=O)OC(C)(C)C)COC[C@H](CC2CCCCC2)[C@H]1CC1CCCCC1 [compound 206] | 44 to 50 | – | – | – | – |
| C=C(C)COC[C@@H]1[C@@H](Cc2ccccc2)COC[C@H](NC(=O)OC(C)(C)C)C(=O)O[C@H]1C [compound 208] | 84 to 88 | – | – | – | – |
| C[C@@H]1OC(=O)[C@@H](NC(=O)OC(C)(C)C)COC[C@H](CC2CCCC2)[C@H]1CC1CCCC1 [compound 215] | 95 to 99 | – | – | – | – |
| C[C@@H]1OC(=O)[C@@H](NC(=O)OC(C)(C)C)COC[C@H](Cc2ccccc2)[C@H]1Cc1ccc(OC(F)(F)F)cc1 [compound 223] | 47 to 51 | – | – | – | – |
| C[C@@H]1OC(=O)[C@@H](NC(=O)OC(C)(C)C)COC[C@H](Cc2ccccc2)[C@H]1c1ccccc1 [compound 224] | 66 to 71 | – | – | – | – |
| C[C@@H]1OC(=O)[C@@H](NC(=O)OC(C)(C)C)COC[C@H](Cc2ccc(C(F)(F)F)cc2)[C@H]1Cc1ccc(OC(F)(F)F)cc1 [compound 225] | 50 to 56 | – | – | – | – |
| CC(C)C[C@@H]1[C@@H](Cc2ccc(C(F)(F)F)cc2)COC[C@H](NC(=O)OC(C)(C)C)C(=O)O[C@H]1C [compound 229] | 115 to 118 | – | – | – | – |
| C[C@@H]1OC(=O)[C@@H](NC(=O)OC(C)(C)C)COC[C@H](Cc2ccc(Cl)cc2)[C@H]1C1CCCC1 [compound 237] | 113 to 115 | – | – | – | – |
